These compounds were tested on TCF4/β-catenin transcription (TOPFlash) in SW480 cells (assay: Reporter gene assay (TOPFlash luciferase)). Conditions: Homo sapiens, SW480.
Assay type: cell-based
Protocol: SW480 cells were transfected with the usage of Superfect™ transfect reagent (Qiagen, 301307). Cells were trypsinized briefly 1 day before transfection and plated on 6 well plate (5×10^5 cells/well) so that they were 50-80% confluent on the day of transfection.
Four microgram (TOPFlash) and one microgram (pRL-null) of DNAs were diluted in 150 μl of serum-free medium, and 30 μl of Superfect™ transfect reagent was added. The DNA-Superfect mixture was incubated at room temperature for 15 min, and then, 1 ml of 10% FBS DMEM was added to this complex for an additional 3 hours of incubation. While complexes were forming, cells were washed with PBS twice without antibiotics.
The DNA-Superfect™ transfect reagent complexes were applied to the cells before incubating at 37° C. at 5% CO2 for 3 hours. After incubation, recovery medium with 10% FBS was added to bring the final volume to 1.18 ml. After 3 hours incubation, the cells were harvested and reseeded to 96 well plate (3×10^4 cells/well). After overnight incubation at 37° C. at 5% CO2, the cells were treated with Compound A for 24 hours. Finally, the activity was checked by means of luciferase assay (Promega, E1960).

Row | Structure (SMILES) | IC50 [µM]
1 | C=CCN1CC(=O)N2[C@@H](Cc3ccc(OC(=O)NCCN(C)C)cc3)C(=O)N(Cc3ccc(F)cc3F)C[C@@H]2N1C(=O)NCc1ccccc1 [Compound 173] | 1.8 ± 0.2

Same assay, conditions: Homo sapiens, SW480, Table 4; Reporter gene assay as described in Example 6; read-out: IC50

Row | IC50 [µM] | Structure (SMILES)
2 | 4.4 ± 0.2 | C=CCN1CC(=O)N2[C@@H](CN([C@H](C)c3ccc(F)cc3F)C(=O)[C@@H]2Cc2ccc(O)cc2)N1C(=O)NCc1ccccc1 [Compound 188]
3 | 5 | CN1CC(=O)N2[C@@H](Cc3ccc(O)cc3)C(=O)N(Cc3ccc4ccccc4c3)C[C@@H]2N1C(=O)NCc1ccccc1 [Compound 24]
4 | 9.4 ± 1.5 | CN(c1cccc(CN2C[C@H]3N(C(=O)CN(C)N3C(=O)NCc3ccccc3)[C@@H](Cc3ccc(O)cc3)C2=O)c1)C1CC1 [Compound 57]
5 | 4.3 ± 0.9 | C[C@H]1[C@H]2N(C(=O)CN(C)N2C(=O)NCc2ccccc2)[C@@H](Cc2ccc(O)cc2)C(=O)N1Cc1cccc(N(C)C)c1 [Compound 78]
6 | 2.3 ± 0.5 | C=CCN1CC(=O)N2[C@@H](Cc3ccc(O)cc3)C(=O)N(Cc3cccc(OCCN4CCOCC4)c3)C[C@@H]2N1C(=O)NCc1ccccc1 [Compound 132]
7 | 14.3 | CN1CC(=O)N2C(CN(Cc3ccccc3Cl)C(=O)[C@@H]2Cc2ccc(O)cc2)N1C(=O)NCc1ccccc1 (stereo partly drawn) [Compound 17]
8 | 4.1 ± 0.8 | C#CCN1CC(=O)N2[C@@H](Cc3ccc(O)cc3)C(=O)N(Cc3cccc4c3cnn4CCN3CCOCC3)C[C@@H]2N1C(=O)NCc1ccccc1 [Compound 112]
9 | 7.1 | CN(C)c1cccc(CN2C[C@H]3N(C(=O)CN(C)N3C(=O)NCc3ccccc3)[C@@H](Cc3ccc(O)cc3)C2=O)c1 [Compound 38]
10 | 0.7 ± 0.1 | C=CCN1CC(=O)N2[C@@H](Cc3ccc(O)cc3)C(=O)N(Cc3cccc4c3OCO4)C[C@@H]2N1C(=O)NCc1ccccc1 [Compound 202]
11 | 10.7 | COc1cccc(CN2CC3N(C(=O)CN(C)N3C(=O)NCc3ccccc3)[C@@H](Cc3ccc(O)cc3)C2=O)c1OC (stereo partly drawn) [Compound 23]
12 | 6.8 | CC(C)N(C)c1cccc([C@@H](C)N2C[C@H]3N(C(=O)CN(C)N3C(=O)NCc3ccccc3)[C@@H](Cc3ccc(O)cc3)C2=O)c1 [Compound 67]
13 | 10.4 | COc1ccc(CN2CC3N(C(=O)CN(C)N3C(=O)NCc3ccccc3)[C@@H](Cc3ccc(O)cc3)C2=O)cc1 (stereo partly drawn) [Compound 22]
14 | 9.4 ± 1 | C=CCN1CC(=O)N2[C@@H](Cc3ccc(O)cc3)C(=O)N(Cc3ccc4c(c3)OCCN4C)C[C@@H]2N1C(=O)NCc1ccccc1 [Compound 147]
15 | 1 ± 0.2 | C#CCN1CC(=O)N2[C@@H](Cc3ccc(O)cc3)C(=O)N(Cc3ccc(Cl)c4cccnc34)C[C@@H]2N1C(=O)NCc1ccccc1 [Compound 138]
16 | 1.3 | CN(C)c1cc(F)ccc1CN1C[C@H]2N(C(=O)CN(C)N2C(=O)NCc2ccccc2)[C@@H](Cc2ccc(O)cc2)C1=O [Compound 50]
17 | 1.6 ± 0.4 | C=CCN1CC(=O)N2[C@@H](Cc3ccc(O)cc3)C(=O)N(Cc3ccc4ncsc4c3)C[C@@H]2N1C(=O)NCc1ccccc1 [Compound 142]
18 | 1.8 ± 0.2 | C=CCN1CC(=O)N2[C@@H](Cc3ccc(O)cc3)C(=O)N(Cc3cccc(N4CCOCC4)c3)C[C@@H]2N1C(=O)NCc1ccccc1 [Compound 127]
19 | 8.1 ± 0.9 | C#CCn1cc2c(CN3C[C@H]4N(C(=O)CN(C)N4C(=O)NCc4ccccc4)[C@@H](Cc4ccc(O)cc4)C3=O)cccc2n1 [Compound 96]
20 | 3.2 ± 0.4 | C=CCN1CC(=O)N2[C@@H](Cc3ccc(O)cc3)C(=O)N(Cc3cccc(N4CCCC4)c3)C[C@@H]2N1C(=O)NCc1ccccc1 [Compound 154]
21 | 2.4 ± 0.5 | C=CCN1CC(=O)N2[C@@H](Cc3ccc(O)cc3)C(=O)N(Cc3ccc(Cl)c(N(C)C)c3)C[C@@H]2N1C(=O)NCc1ccccc1 [Compound 129]
22 | 4.6 ± 0.4 | CN1CC(=O)N2[C@@H](Cc3ccc(O)cc3)C(=O)N(Cc3cccc4cnn(Cc5ccc(N)cc5)c34)C[C@@H]2N1C(=O)NCc1ccccc1 [Compound 104]
23 | 1.8 ± 0.6 | C=CCN1CC(=O)N2[C@@H](Cc3ccc(O)cc3)C(=O)N(Cc3cc(F)c(F)cc3N(C)C)C[C@@H]2N1C(=O)NCc1ccccc1 [Compound 162]
24 | 10.9 | Cc1cccc(CN2C[C@H]3N(C(=O)CN(C)N3C(=O)NCc3ccccc3)[C@@H](Cc3ccc(O)cc3)C2=O)c1N(C)C [Compound 48]
25 | 2.1 ± 0.2 | CN1CC(=O)N2[C@@H](Cc3ccc(O)cc3)C(=O)N(Cc3cccc4cnn(Cc5ccccc5[N+](=O)[O-])c34)C[C@@H]2N1C(=O)NCc1ccccc1 [Compound 74]
26 | 3.8 ± 0.6 | C#CCN1CC(=O)N2[C@@H](Cc3ccc(O)cc3)C(=O)N(Cc3ccc(Cl)c(N(C)C)c3)C[C@@H]2N1C(=O)NCc1ccccc1 [Compound 110]
27 | 1.3 ± 0.1 | C=CCN1CC(=O)N2[C@@H](Cc3ccc(O)cc3)C(=O)N(Cc3cccc(OC(F)(F)F)c3)C[C@@H]2N1C(=O)NCc1ccccc1 [Compound 206]

Row | IC50 [µM] | Structure (SMILES)
28 | 18 ± 5.1 | C=CCN1CC(=O)N2[C@@H](Cc3ccc(O)cc3)C(=O)N(Cc3ccc(OC)cc3)C[C@@H]2N1C(=O)NCc1ccc(Cl)c(Cl)c1 [Compound 215]
29 | 9.3 ± 1.6 | CN1CC(=O)N2[C@@H](Cc3ccc(O)cc3)C(=O)N(Cc3cccc4c3cnn4C)C[C@@H]2N1C(=O)NCc1ccccc1 [Compound 56]
30 | 13 | CN1CC(=O)N2[C@@H](Cc3ccc(O)cc3)C(=O)N(Cc3cccc4ncccc34)C[C@@H]2N1C(=O)NCc1ccccc1 [Compound 33]
31 | 19 ± 7.1 | CC(C)N(C)c1ccc(F)c([C@H](C)N2C[C@H]3N(C(=O)CN(C)N3C(=O)NCc3ccccc3)[C@@H](Cc3ccc(O)cc3)C2=O)c1 [Compound 65]
32 | 8.6 ± 0.4 | CN1CC(=O)N2[C@@H](Cc3ccc(O)cc3)C(=O)N(Cc3ccc(F)cc3F)C[C@@H]2N1C(=O)NCc1ccc(F)cc1 [Compound 200]
33 | 34.4 ± 4.9 | CN(Cc1cccc(CN2C[C@H]3N(C(=O)CN(C)N3C(=O)NCc3ccccc3)[C@@H](Cc3ccc(O)cc3)C2=O)c1)C1CCOCC1 [Compound 120]
34 | 4.8 | Cc1cc(C)c(N(C)C)c(CN2C[C@H]3N(C(=O)CN(C)N3C(=O)NCc3ccccc3)[C@@H](Cc3ccc(O)cc3)C2=O)c1 [Compound 51]
35 | 25.3 ± 6.6 | CCN(CC)c1cc(F)ccc1[C@H](C)N1C[C@H]2N(C(=O)CN(C)N2C(=O)NCc2ccccc2)[C@@H](Cc2ccc(O)cc2)C1=O [Compound 64]
36 | 2.1 ± 0.4 | CCCN1CC(=O)N2[C@@H](Cc3ccc(O)cc3)C(=O)N(Cc3cccc4cccnc34)C[C@@H]2N1C(=O)NCc1ccccc1 [Compound 122]
37 | 8.8 ± 1.3 | O=C1[C@H](Cc2ccc(O)cc2)N2C(=O)CON(C(=O)NCc3ccccc3)[C@H]2CN1Cc1cccc2cccnc12 [Compound 119]
38 | 3.8 | CN1CC(=O)N2[C@@H](Cc3ccc(O)cc3)C(=O)N(Cc3ccc(Cl)c(Cl)c3)C[C@@H]2N1C(=O)NCc1ccccc1 [Compound 29]
39 | 1.1 ± 0.2 | C=CCN1CC(=O)N2[C@@H](Cc3ccc(O)cc3)C(=O)N(Cc3ccc4c(c3)OCCO4)C[C@@H]2N1C(=O)NCc1ccccc1 [Compound 187]
40 | 6.7 ± 0.6 | C=CCN1CC(=O)N2[C@@H](CC3(O)C=CC(=O)C=C3)C(=O)N(Cc3ccc(F)cc3F)C[C@@H]2N1C(=O)NCc1ccccc1 [Compound 181]
41 | 1.4 | CN(C)c1cc(F)c(F)cc1CN1C[C@H]2N(C(=O)CN(C)N2C(=O)NCc2ccccc2)[C@@H](Cc2ccc(O)cc2)C1=O [Compound 49]
42 | 2.9 ± 0.2 | CN1CC(=O)N2[C@@H](Cc3ccc(O)cc3)C(=O)N(Cc3cccc4cn(Cc5cccc(N)c5)nc34)C[C@@H]2N1C(=O)NCc1ccccc1 [Compound 91]
43 | 12.8 ± 0.9 | C=CCN1CC(=O)N2[C@@H](Cc3ccc(O)cc3)C(=O)N([C@H](C)c3ccccc3)C[C@@H]2N1C(=O)NCc1ccccc1 [Compound 183]
44 | 1.6 ± 0.2 | C=CCN1CC(=O)N2[C@@H](Cc3ccc(O)c(F)c3)C(=O)N(Cc3cccc4scnc34)C[C@@H]2N1C(=O)NCc1ccccc1 [Compound 216]
45 | 7 | CN1CC(=O)N2[C@@H](Cc3ccc(O)cc3)C(=O)N(Cc3cccc4occc34)C[C@@H]2N1C(=O)NCc1ccccc1 [Compound 40]
46 | 11.8 | CN1CC(=O)N2[C@@H](Cc3ccc(O)cc3)C(=O)N(Cc3cccc4ccccc34)C[C@@H]2N1C(=O)Nc1ccc(C(F)(F)F)cc1 [Compound 4]
47 | 5.4 ± 0.5 | C=CCN1CC(=O)N2[C@@H](Cc3ccc(O)cc3)C(=O)N(Cc3ccc(F)cc3F)C[C@@H]2N1C(=O)NCc1ccc(F)cc1 [Compound 175]
48 | 50.5 ± 18.4 | CN1CC(=O)N2[C@@H](Cc3ccc(O)cc3)C(=O)N(Cc3cccc4nnn(C)c34)C[C@@H]2N1C(=O)NCc1ccccc1 [Compound 75]
49 | 7.2 ± 2.5 | CN1CC(=O)N2[C@@H](Cc3ccc(O)cc3)C(=O)N(Cc3ccc4ncsc4c3)C[C@@H]2N1C(=O)NCc1ccccc1 [Compound 77]
50 | 13.9 | CN1CC(=O)N2C(Cc3ccc(O)cc3)C(=O)N(Cc3cccc4ccccc34)CC2N1C(=O)NCc1ccc(Cl)c(Cl)c1 (stereo not drawn) [Compound 3]
51 | 2.3 | CC(c1ccc(F)cc1)N1C[C@H]2N(C(=O)CN(C)N2C(=O)NCc2ccccc2)[C@@H](Cc2ccc(O)cc2)C1=O (stereo partly drawn) [Compound 37]
52 | 2.2 ± 0.7 | C=CCN1CC(=O)N2[C@@H](Cc3ccc(O)cc3)C(=O)N(Cc3cccc4sc(N5CCOCC5)nc34)C[C@@H]2N1C(=O)NCc1ccccc1 [Compound 219]

Row | Structure (SMILES) | IC50 [µM]
53 | C=CCN1CC(=O)N2[C@@H](Cc3ccc(OP(=O)(O)O)cc3)C(=O)N(Cc3ccc(OC)cc3)C[C@@H]2N1C(=O)NCc1ccccc1 [Compound 209] | 1.9 ± 0.5
54 | C=CCN1CC(=O)N2[C@@H](Cc3ccc(O)cc3)C(=O)N(Cc3ccc(F)cc3F)C[C@@H]2N1C(=O)NCc1ccccc1 [Compound 143] | 1.3 ± 0.2

From US7671054B1, “Reverse-turn mimetics and method relating thereto” (Choongwae Pharma Corporation, priority 2001, dated 2010)
